Measurements reported in patent publication US8021686B2, “Lipid-encapsulated polyanionic nucleic acid” (The University of British Columbia, priority 1997, dated 2011).

Tests used:
pKa of amino lipid = format: physicochemical
[1] = Assessment of antisense encapsulation (encapsulation efficiency, drug:lipid ratio); format: physicochemical
Experimental: drug to lipid ratio: The amount of drug (therapeutic agent) in a defined volume of preparation divided by the amount of lipid in the same volume. This may be on a mole per mole basis or on a weight per weight basis, or on a weight per mole basis. For final, administration-ready formulations, the drug:lipid ratio is calculated after dialysis, chromatography and/or enzyme (e.g., nuclease) digestion has been employed to remove as much of the external therapeutic agent (e.g., nucleic acid) as possible.
encapsulation efficiency: the drug to lipid ratio of the starting mixture divided by the drug to lipid ratio of the final, administration competent formulation. This is a measure of relative efficiency. For a measure of absolute efficiency, the total amount of therapeutic agent (nucleic acid) added to the starting mixture that ends up in the administration competent formulation, can also be calculated. The amount of lipid lost during the formulation process may also be calculated. […]
Antisense encapsulation was typically assessed by dual label ([^3H]-antisense and [^14C]-lipid) liquid scintillation counting after gel filtration chromatography to separate the free and encapsulated antisense. Antisense encapsulation was evaluated by summing the total [^3H]-antisense radioactivity associated with the lipid peak and dividing by the total [^3H]-antisense radioactivity. […]

ICAM-1 gene = assay: Ear inflammation model (DNFB contact sensitivity); format: in vivo, ICR mice; settings: lipid-encapsulated antisense, i.v. 20-30 mg/kg 15 min after DNFB, 24 hours
Experimental: Mice were sensitized by applying 25 μL of 0.5% 2,4-dinitro-1-fluorobenzene (DNFB) in acetone: olive oil (4:1) to the shaved abdominal wall for two consecutive days. Four days after the second application, mice were challenged on the dorsal surface of the left ear with 10 μL of 0.2% DNFB in acetone:olive oil (4:1). Mice received no treatment on the contralateral (right) ear. In some cases, control mice received 10 μL of vehicle on the dorsal surface of the left ear.
Ear thickness was measured immediately prior to ear challenge, and at various time intervals after DNFB challenge, using an engineer's micrometer (Mitutoyo, Tokyo, Japan). Increases in ear thickness measurements were determined by subtracting the pre-challenge from post-challenge measurements.
Inflamed mice were treated at the time of ear challenge with a 30 mg/kg i.v. dose of either HBS (no oligo), EPC:CHOL liposomes with entrapped PS-3082 (identified as AS 1000), POPC:CHOL:DODAP:PEG-CerC14 with entrapped PS-3082 (identified as AS 4100), or DSPC:CHOL:DODAP:PEG-CerC14 with entrapped PS-3082 (identified as AS 4200). Ear swelling was measured at 24 hours after initiating inflammation using an engineer's micrometer.
Antisense Sample Preparation: Antisense was encapsulated using the standard methods of Examples 5-9, using the phosphodiester modification. […]

[2] = test system: MDA-MB-453 human breast carcinoma; assay: Tumor window model, human breast tumor; format: in vivo, mouse; settings: i.v. 10 mg/kg/administration, 3 administrations/week
From the text: The human breast carcinoma line MDA-MB-453 was implanted in a mouse tumor window model according to the method of Wu, N. Z., Da, D., Rudoll, T. L., Needham, D., Whorton, R. & Dewhirst, M. W. 1993. Increased microvascular permeability contributes to preferential accumulation of Stealth liposomes in tumor tissue. Cancer Research 53: 3765-3770; and Dewhirst, M. W., Tso, C. Y., Oliver, R., Gustafson, C. S., Secomb, T. W. & Gross, J. F. 1989. Morpholigic and hemodynamic comparison of tumor and healing normal tissue microvasculature. Int. J. Radiat. Oncol. Biol. Phys. 17: 91-99. See also Dewhirst, M W., and Needham, D. 1995. Extravasation of Stealth Liposomes into Tumors: Direct Measurement of Accumulation and Vascular Permeability using a Skin Flap Window Chamber. In Stealth Liposomes (Eds. Lasic, D. and Martin, F.) CRC Press.
In vivo efficacy evaluation: When the tumor in the window has reached a diameter of 2-3 mm, treatment with free or TCS-encapsulated US3 oligonucleotide is initiated. Treatment consists of a 200 ul intravenous administration (tail vein) of either free US3 or TCS-encapsulated US3 on a 3 administrations/week schedule and an antisense dose of 10 mg/kg/administration. Tumor size is monitored 3 times per week by microscopy.

CCCCCCCC/C=C\CCCCCCCC(=O)OCC(CN(C)C)OC(=O)CCCCCCC/C=C\CCCCCCCC (stereo not drawn) [DODAP, 1,2-dioleoyloxy-3-dimethylaminopropane]
pKa (pKa of amino lipid): 6.53

PO-2302: human ICAM-1 phosphodiester antisense GCCCAAGCTGGCATCCGTCA (SEQ ID No 2) (DNA, all phosphodiester, methylation of C not given here)
final (administration ready) drug:lipid ratios ([1]; citrate varied, DSPC:CHOL:DODAP:PEG-CerC14 25:45:20:10): greater than 10 % by weight

PO-3082: murine ICAM-1 phosphodiester antisense TGCATCCCCCAGGCCACCAT (SEQ ID No 1) (DNA, all phosphodiester, methylation of C not given here)
reduction of the degree of inflammation (ICAM-1 gene): ~85%

PS-3082: murine ICAM-1 phosphorothioate antisense TGCATCCCCCAGGCCACCAT (SEQ ID No 1) (DNA, all phosphorothioate, methylation of C not given here)
reduction of the degree of inflammation (ICAM-1 gene): around 70%

US3: anti-human erb-B-2 antisense GGT GCT CAC TGC GGC (SEQ ID No 3) (antisense GGTGCTCACTGCGGC; all phosphorothioate, sugars by position and methylation of C not given here)
effect on tumor growth [2]: ineffective at inhibiting tumor growth

VEGF-R1: human VEGF-R 1 ribozyme GAGUUGCUGAUGAGGCCGAAAGGCCGAAAGUCUG (SEQ ID No 16) (GAGUUGCUGAUGAGGCCGAAAGGCCGAAAGUCUG; chemistry not fully specified)
encapsulation efficiency ([1]; 20 mM citrate, FIG. 20): over 50%
